# In patent publication EP0565593B1, “REDUCING PESTICIDAL INTERACTIONS IN CROPS” (priority 1990, dated 1992):
# Columns and labels:
# Assay type in all cases: in vivo
# Set-up in all cases: inhibition: dose or concentration left out as unconfirmed
# [1] = system: cotton (COTT); test: Multi-crop greenhouse test, biocide, herbicide and safener applied to soil covers (Examples 65, 66; Tables 64, 65); conditions: Gossypium hirsutum, soil; for inhibition at 18 g/ha: Herb. No. 1 0.018 Kg/Ha alone; for inhibition at 70 g/ha: Herb. No. 1 0.07 Kg/Ha alone; for inhibition at 280 g/ha: Herb. No. 1 0.28 Kg/Ha alone
# Experimental: (§1) Tests according to this invention in various crops indicate widespread application of the invention. In Examples 62-66 below are described tests with a variety of herbicides contacted with COUNTER® 15G in the presence and absence of MON-7400 (Antidote No. 12); MON-13900 (No. 1); MON-4660 (No. 16) and flurazole (No. 16). Those tests were conducted according to Procedures IV or V described above and illustrated further in other foregoing examples. Plants used in all tests were, for crops (as abbreviated in parentheses); cotton (COTT); soybean (SOBE); CORN, grain sorghum (GRSO); wheat (WHEA) and RICE, and the weeds giant foxtail (GIFT) and velvetleaf (VELE). The data in the tables below represent averages of two replications.
# (§2) In this test the crops and weeds were planted 1.3 cm deep in 13.7 cm X 27.7 cm pans containing Dupo silt loam soil. The test safeners were applied in acetone solution and COUNTER 15G as dry granules to soil cover layers and incorporated by shaking in a bag. Treated cover layers were placed on seeded pans which were transferred to greenhouse benches and subirrigated. Herbicide was applied POE six (6) days after PPI initiation and observations of plant injury made ten (10) days later; results are shown in Table 61. The herbicide used in this example was BEACON (No. 8).
# In another test in the several crops and weeds used in this test series, the herbicidal component was MON-12000 (No. 1); the other components were the same. the procedure used in this test was the same as that described in Example 62, modified to use a light overhead irrigation (about 0.32 cm/day) during days 4-7 of the test.
# In yet another test in this series, XRD-498 (Herbicide No. 21) was used as the herbicidal component in contact with COUNTER 15G in the presence of the above safeners. The various components of the system (biocide, herbicide and safener) were applied concurrently to soil covers of the seeded plants.
# [2] = system: Corn; test: Multi-crop greenhouse test, soil-applied (Examples 65, 66; Tables 64, 65); conditions: Zea mays; for inhibition at 18 g/ha: Herb. No. 1 0.018 Kg/Ha alone; for inhibition at 70 g/ha: Herb. No. 1 0.07 Kg/Ha alone; for inhibition at 280 g/ha: Herb. No. 1 0.28 Kg/Ha alone
# Experimental: as §1, §2
# (§3) In another test in the several crops and weeds used in this test series, the herbicidal component was MON-12000 (No. 1); the other components were the same. the procedure used in this test was the same as that described in Example 62, modified to use a light overhead irrigation (about 0.32 cm/day) during days 4-7 of the test. Table 64 […]
# [3] = system: Giant foxtail (GIFT); test: as above; conditions: Setaria faberi; for inhibition at 18 g/ha: Herb. No. 1 0.018 Kg/Ha alone; for inhibition at 70 g/ha: Herb. No. 1 0.07 Kg/Ha alone; for inhibition at 280 g/ha: Herb. No. 1 0.28 Kg/Ha alone
# Experimental: as §1, §2, §3
# [4] = system: RICE; test: as above; conditions: Oryza sativa; for inhibition at 18 g/ha: Herb. No. 1 0.018 Kg/Ha alone; for inhibition at 70 g/ha: Herb. No. 1 0.07 Kg/Ha alone; for inhibition at 280 g/ha: Herb. No. 1 0.28 Kg/Ha alone
# Experimental: as §1, §2, §3
# [5] = system: grain sorghum (GRSO); test: as above; conditions: Sorghum; for inhibition at 18 g/ha: Herb. No. 1 0.018 Kg/Ha alone; for inhibition at 70 g/ha: Herb. No. 1 0.07 Kg/Ha alone; for inhibition at 280 g/ha: Herb. No. 1 0.28 Kg/Ha alone
# Experimental: as §1, §2, §3
# [6] = Table 64, Herb. No. 1 0.018 Kg/Ha + Biocide No. 1 8.96 Kg/Ha
# [7] = Table 64, Herb. No. 1 0.07 Kg/Ha + Biocide No. 1 8.96 Kg/Ha
# [8] = Table 64, Herb. No. 1 0.28 Kg/Ha + Biocide No. 1 8.96 Kg/Ha
# [9] = Table 65, Herb. No. 1 0.018 Kg/Ha + Biocide No. 1 8.96 Kg/Ha
# [10] = Table 65, Herb. No. 1 0.07 Kg/Ha + Biocide No. 1 8.96 Kg/Ha
# [11] = Table 65, Herb. No. 1 0.28 Kg/Ha + Biocide No. 1 8.96 Kg/Ha
smiles,measurement,setting,value
"COC(=O)c1c(Cl)nn(C)c1S(=O)(=O)NC(=O)Nc1nc(OC)cc(OC)n1 [Herbicide No. 1, N-[(4,6-dimethoxypyrimidin-2-yl)aminocarbonyl]-3-chloro-4-methoxycarbonyl-5-sulfonamide, reference compound]",inhibition,[1]; [6],15%
same,inhibition at 18 g/ha,[1]; Table 64,10%
same,inhibition,[1]; [7],0%
same,inhibition at 70 g/ha,[1]; Table 64,20%
same,inhibition,[1]; [8],55%
same,inhibition at 280 g/ha,[1]; Table 64,60%
same,inhibition,[1]; [9],0%
same,inhibition at 18 g/ha,[1]; Table 65,0%
same,inhibition,[1]; [10],20%
same,inhibition at 70 g/ha,[1]; Table 65,20%
same,inhibition,[1]; [11],75%
same,inhibition at 280 g/ha,[1]; Table 65,40%
same,inhibition,[2]; [6],0%
same,inhibition at 18 g/ha,[2]; Table 64,0%
same,inhibition,[2]; [7],10%
same,inhibition at 70 g/ha,[2]; Table 64,0%
same,inhibition,[2]; [8],60%
same,inhibition at 280 g/ha,[2]; Table 64,10%
same,inhibition,[2]; [9],0%
same,inhibition at 18 g/ha,[2]; Table 65,0%
same,inhibition,[2]; [10],0%
same,inhibition at 70 g/ha,[2]; Table 65,0%
same,inhibition,[2]; [11],75%
same,inhibition at 280 g/ha,[2]; Table 65,10%
same,inhibition,[3]; [6],70%
same,inhibition at 18 g/ha,[3]; Table 64,0%
same,inhibition,[3]; [7],70%
same,inhibition at 70 g/ha,[3]; Table 64,20%
same,inhibition,[3]; [8],85%
same,inhibition at 280 g/ha,[3]; Table 64,40%
same,inhibition,[3]; [9],30%
same,inhibition at 18 g/ha,[3]; Table 65,20%
same,inhibition,[3]; [10],65%
same,inhibition at 70 g/ha,[3]; Table 65,60%
same,inhibition,[3]; [11],90%
same,inhibition at 280 g/ha,[3]; Table 65,70%
same,inhibition,[4]; [6],0%
same,inhibition at 18 g/ha,[4]; Table 64,0%
same,inhibition,[4]; [7],10%
same,inhibition at 70 g/ha,[4]; Table 64,0%
same,inhibition,[4]; [8],25%
same,inhibition at 280 g/ha,[4]; Table 64,40%
same,inhibition,[4]; [9],0%
same,inhibition at 18 g/ha,[4]; Table 65,0%
same,inhibition,[4]; [10],25%
same,inhibition at 70 g/ha,[4]; Table 65,40%
same,inhibition,[4]; [11],90%
same,inhibition at 280 g/ha,[4]; Table 65,60%
same,inhibition,[5]; [6],0%
same,inhibition at 18 g/ha,[5]; Table 64,0%
same,inhibition,[5]; [7],15%
same,inhibition at 70 g/ha,[5]; Table 64,0%
same,inhibition,[5]; [8],15%
same,inhibition at 280 g/ha,[5]; Table 64,20%
same,inhibition,[5]; [9],15%
same,inhibition at 18 g/ha,[5]; Table 65,0%
same,inhibition,[5]; [10],20%
same,inhibition at 70 g/ha,[5]; Table 65,40%
same,inhibition,[5]; [11],85%
same,inhibition at 280 g/ha,[5]; Table 65,80%
